Reference: patent US10548895B2, “Ligands that target Plasmodium sporozoite binding sites on CD81 and therapeutic methods using them” (American University In Cairo (AUC), priority 2014, dated 2020)
“Also recorded” adds a separate entry of the source.

What was measured:
[1] = system: Plasmodium berghei; assay: Sporozoite infection assay, P. berghei in Hepa1-6 cells; type: cell-based; details: for effect on infection (in words): P. berghei, Hepa1-6 cells
[2] = target: T1, native CD81 on Raji cells (Homo sapiens, UniProt P60033); assay: Antibody neutralizing assay: inhibition of JS-81 anti-CD81 antibody binding on Raji cells (FACS); type: cell-based; details: Raji cells, read-out: Inhibition of JS-81 Binding (%); for inhibition at 50 µM: 50 μM ligand; for inhibition at 100 µM: 100 μM ligand; for inhibition at 400 µM: 400 μM ligand
T1 construct: endogenous in cells; host or cells: Raji cells (human B cell line)
T1 sequence (P60033 1-236): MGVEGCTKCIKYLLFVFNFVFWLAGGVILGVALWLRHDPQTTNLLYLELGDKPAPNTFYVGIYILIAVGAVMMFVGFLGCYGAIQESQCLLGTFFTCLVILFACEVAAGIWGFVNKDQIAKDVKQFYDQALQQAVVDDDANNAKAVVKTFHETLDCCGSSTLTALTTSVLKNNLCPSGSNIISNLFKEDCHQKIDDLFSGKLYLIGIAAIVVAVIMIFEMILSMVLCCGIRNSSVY
Protocol: For antibody neutralization assay Raji cells were used, a human B cell line that expressed high amounts of CD81 on the surface (data not shown), Cells were grown in RPMI medium (10% FCS, 1% penicillin/streptomycin, 1% L-glutamine, 1% non-essential amino acids, 1% sodium pyruvate, pH 7.4, at 37° C. with 5% CO2). 2×10^5 cells were incubated with or without different concentrations (50 μM, 100 μM, 400 μM and 1 mM) of indicated inhibitor for 20 min at room temperature, subsequently 1 ul (16 ng/μl) of FITC-labeled anti CD81 antibody (BD Pharmingen, 551108) was added to the cells and incubated for 20 min (antibody titration was performed to obtain a working dilution range, data not shown). Cells were washed and analyzed by FACS (BD FACSCalibur, software: Cell Quest Pro). Mean Fluorescence Intensity MFI was calculated using Flowjo software (TreesStar, www.flowjo.com).

[3] = target: T2, CD81-LEL (Homo sapiens, UniProt P60033); assay: Surface plasmon resonance binding of ligands to immobilized CD81-LEL; details: SPR; for Binding (change in response units): 3 min association; for Dissociation 1 (change in response units) / Dissociation 2 (change in response units): dissociation interval
T2 construct: A recombinant form of the CD81-LEL protein with a GST tag; gift of Dr. Shoshana Levy, Stanford University
T2 sequence (P60033 113-201 limits assumed): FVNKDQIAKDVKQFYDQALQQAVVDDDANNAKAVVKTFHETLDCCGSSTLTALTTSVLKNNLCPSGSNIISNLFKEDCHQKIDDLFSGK
Protocol: SPR analysis was performed using a Biacore T200 workstation (GE Healthcare, NJ, USA). A recombinant form of the CD81-LEL protein with a GST tag (generously provided by Dr. Shoshana Levy, Stanford University) was used to confirm, using an established experimental technique, the binding of several ligands to the protein. Briefly, 10 μM CD81-LEL-GST diluted into 10 mM Na-Acetate buffer pH 4.5 was immobilized for 15 min at a flow speed of 5 μl/min onto a CM5 sensor chip using amine-coupling (EDC-NHS), Approximately 20,000 RU of protein were immobilized on the chip. The ligands were prepared as 600 μM solutions in PBS-0.05% Tween-80 (the running buffer) and they were introduced to the protein using a pre-programmed 3 minute association and 1 minute dissociation interval.
SPR analysis was performed using a Biacore T100 workstation (GE Healthcare, NJ, USA). […] Approximately 20,000 RU of protein were immobilized on the chip. The ligands were prepared as 200 uM solutions in PBS-1% DMSO (the running buffer) and they were introduced to the protein using a pre-programmed 3 min association and 1 min dissociation interval.

[4] = system: Plasmodium yoelii; assay: Sporozoite infection assay, P. yoelii in Hepa1-6 cells; type: cell-based; details: for effect on infection (in words): P. yoelii, Hepa1-6 cells
[5] = system: Plasmodium berghei; assay: Sporozoite infection assay, P. berghei in HepG2 cells; type: cell-based
[6] = system: Plasmodium falciparum; assay: Sporozoite invasion assay, P. falciparum in HepG2-CD81 cells; type: cell-based
Protocol: (§1) Anopheles stephensi mosquitoes were fed on mice infected with Plasmodium yoelii 17XNL parasites. On day 14 post bloodmeal, salivary glands were harvested, homogenized, sporozoite number was determined using a hemocytometer and the indicated number of sporozoites was added to cell monolayers, Plasmodium falciparum sporozoites were generated by membrane feeding An. stephensi mosquitoes using gametocyte cultures generated in vitro.
(§2) HepG2-CD81 (14) cells were maintained in DMEM supplemented with 10% fetal calf serum and 1 mM glutamine (DMEM/FCS), mAb 2E6 was used for development assays and is directed against Plasmodium Hsp 70 (15) and mAb 2A10 is directed against the repeat region of P. falciparum CSP and was used for invasion assays.
(§3) 5×10^5 HepG2-CD81 cells were plated on collagen coated Lab-Tek wells and allowed to adhere overnight. The following day, cells were preincubated with 400 uM of compound for 30 minutes at 37° C. Controls were pre-incubated with DMSO at the same concentration in which it was found in the compound solutions. 10^5 sporozoites were added to each well and in the case of P. falciparum, incubated for 1.5 hours and scored for invasion whereas in the case of P. yoelii, incubated for 44 hours and scored for exoerythrocytic stages.

[7] = system: Plasmodium yoelii; assay: Sporozoite development assay, P. yoelii in HepG2-CD81 cells; type: cell-based; details: for effect on infection (in words): P. yoelii, HepG2-CD81
Protocol: as §1, §2, §3

Row | Structure (SMILES) | effect on infection (in words) [1] | inhibition at 50 µM [2] | inhibition at 100 µM [2] | inhibition at 400 µM [2] | Binding (change in response units) [3] | Dissociation 1 (change in response units) [3] | Dissociation 2 (change in response units) [3] | effect on infection (in words) [4] | effect on infection (in words) [5] | effect on infection (in words) ([6]; P. falciparum) | effect on infection (in words) [7] | Percent Infection ([1]; Hepa1-6 Cells, Plasmodium berghei) | Percent Infection ([4]; Hepa1-6 Cells, Plasmodium yoelii) | Percent Infection ([6]; HepG2-CD81, Plasmodium falciparum, 400 uM compound) | Percent Infection ([7]; HepG2-CD81, Plasmodium yoelii, 400 uM compound)
1 | O=C(O)/C(=C\c1ccccc1)c1ccccc1 [Ligand 40614, 2,3-diphenylprop-2-enoate] | enhancing development | 0% | 8% | 26% | 52.5 response units | 50.8 response units | 43 response units | enhancing development | enhancing development | wasn't found to enhance infection | enhance the infection |  |  |  | 
2 | Cc1cc(C)c(N)c(C(=O)O)c1 [Ligand 90444, 2-amino-3,5-dimethylbenzoate] | didn't inhibit | 0% | 0% | 24% | −1.7 response units | 13.1 response units | 5.6 response units | didn't inhibit |  |  | inhibit; also recorded: inhibitory effect | 95.6% | 222% | 98.7% | 44.3%
